These results are taken from patent US8541428B2, “Heterocyclic derivatives, pharmaceutical compositions and methods of use thereof” (Technion Research and Development Foundation Ltd., priority 2006, dated 2013).

Assay [1] addresses peripheral-type benzodiazepine receptor (PBR) (Homo sapiens, UniProt P30536). The assay can be described thus: PBR binding assay, [3H]PK 11195 radio-assay (competition with radioactive standard ligand). The settings on record: for binding to PBR (in words): [3H]PK 11195 radio-assay. Here is the method: Briefly, the assay utilizes radioactive standard ligand [^3H] PK 11195 (1-(2-chlorophenyl)-N-methyl-N-(1-methyl-propyl)-3-isoquinolinecarboxamide), and measures the ability of the compounds of the invention to compete with standard ligand in binding to PBR. Total radioactive binding was determined by measuring the radioactivity of the radioactive ligand-receptor complex, obtained in the reaction of radioactive standard with the PBR. Radioactive standard and the examined ligand were added to the PBR and after some incubation time the radioactivity of the resulting ligand-receptor complexes was measured with the help of […]. This radioactivity indicates the binding of the radioactive standard to PBR. […] For an easier interpretation of our results, the binding was expressed in percentage of radioactive ligand binding. The lower the number, the better the binding of the examined ligand to PBR. Western blot analysis can be used to see which components of the PBR-complex may be important for the efficacy of the new PBR ligands, according to methods described previously [Levin E et al. 2005; Kuznetsov V et al. 2005; Weisinger G et al. Biochemistiy 2004].

The subject of assay [2] is C6 glioma cell line. The assay can be described thus: Mitochondrial membrane potential decrease in C6 glioma cell line (control and IBP knockdown). As to conditions: 10^-4M. The format is cell-based, rat. The procedure: Mitochondrial membrane potential and mitochondrial volume measurement. To see whether the new PBR ligand is able to prevent opening of the mitochondrial permeability transition pore to prevent apoptosis changes in the mitochondrial volume and potential are measured, as described previously [Maaser K, Br J Cancer 2001;85:1771-1780].

The test system of assay [3] is C6 glioma cell line. The assay can be described thus: Apoptotic levels in C6 glioma cell line (control and IBP knockdown). The settings on record: for increase of apoptotic levels: control cells; for apoptotic effects in IBP knockdown cell line: IBP knockdown cells, FGIN-1-27 10^-5M, ErPC 10^-4M. The format is cell-based, rat. An excerpt: Cell death, including apoptosis. The Cell Death Detection ELISA^PLUS kit of Roche Molecular Biochemicals (Mannheim, Germany) was used to determine the effects on apoptosis by the new PBR ligands, in particular the one of the present description, according to methods described previously [Veenman L et al. 2005; Levin E et al. 2005]. Also, the Trypan blue method was applied in order to determine the cell viability after application of the new PBR ligands, according to methods described previously [Veenman L et al. 2005; Levin E et al. 2005]. Cell death including apoptosis of neural cells is induced by glutamate and Abeta, according to methods described previously [Michal Gaitner, M. Sc. thesis, 2004].

The target of another assay is PBR-complex (Homo sapiens, UniProt P30536). As to conditions: displacement of [3H]Ro5 4864; cited from earlier work. Background: Loss of bound radioactivity is the signal in a displacement assay; it reports binding, not function.
For assay [4] the following is noted: modulation of PBR composition, seizures; cited from earlier work.

peripheral-type benzodiazepine receptor (PBR), sequence (P30536 whole entry, species assumed): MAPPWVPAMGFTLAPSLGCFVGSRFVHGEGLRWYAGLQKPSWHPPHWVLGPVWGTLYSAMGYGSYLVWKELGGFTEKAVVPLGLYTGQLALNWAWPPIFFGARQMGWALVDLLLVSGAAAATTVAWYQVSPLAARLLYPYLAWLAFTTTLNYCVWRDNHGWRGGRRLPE
PBR-complex, sequence (P30536 whole entry, one chain of several): as the sequence (P30536 whole entry, species assumed) above

As for `CCN(CC)C(=O)C(C)(C)c1nc2ccccc2nc1-c1ccccc1` [Compound 5, N,N-Diethyl-2-(3-phenyl-quinoxalin-2-yl)-isobutyramide], the “binding to PBR (in words)” value in assay [1] is given as “best binding”.

For the molecule `CN(C)C(=O)Oc1nc(-c2ccccc2)nc2ccccc12` [Compound 9a, Dimethyl-carbamic acid 2-phenyl-quinazolin-4-yl ester], the “binding to PBR (in words)” value in assay [1] is “good binding properties”.

For `CC(C)N(C(=O)n1c(-c2ccccc2)nc2ccccc2c1=O)C(C)C` [Compound 10b, 4-Oxo-2-phenyl-4H-quinazoline-3-carboxylic acid diisopropylamide], in assay [1], the “binding to PBR (in words)” value is recorded as “good binding properties”.

On to `CCN(CC)C(=O)Cc1nc(-c2ccccc2)nc2ccccc12` [Compound 12b, N,N-Diethyl-2-(2-phenyl-quinazolin-4-yl)-acetamide], for which the “radioactive standard remained bound to PBR (percentage of radioactive ligand binding)” value in assay [1] ([3H]PK 11195, the lower the number, the better the binding) came out at 14%. Further, in assay [1], the “binding to PBR (in words)” value is given as “good binding properties”.

In the case of `CC(C)N(C(=O)Cc1nc(-c2ccccc2)nc2ccccc12)C(C)C` [Compound 12c, N,N-Diisopropyl-2-(2-phenyl-quinazolin-4-yl)-acetamide], the “binding to PBR (in words)” value in assay [1] was “good binding properties”.

Turning to `CCCCCCCC/C=C\CCCCCCCCCCCCOP(=O)([O-])OCC[N+](C)(C)C` [ErPC], the “effects on mitochondrial potential in IBP knockdown cell line” value in the assay on C6 glioma cell line [2] (IBP knockdown cell line (as 3.7)) was “completely abolished”. Besides, the “enhancement of mitochondrial membrane potential decrease” value with C6 glioma cell line [2] (control cells vs vehicle treated control cells) worked out at 6 fold. The “increase of apoptotic levels” value with C6 glioma cell line [3] (10^-4M) is recorded as 7-8 fold. The “apoptotic effects in IBP knockdown cell line” value in the assay with C6 glioma cell line [3] is on record as “completely abolished”.

Turning to `CCCCCCN(CCCCCC)C(=O)Cc1c(-c2ccc(F)cc2)[nH]c2ccccc12` [FGIN-1-27], on PBR-complex, the Ki – broadly, a measure of affinity in units of concentration, obtained from inhibition or displacement – is 4.4 ± 0.1 nM. For the same molecule, in the assay with C6 glioma cell line [3] (10^-5M), the “increase of apoptotic levels” value turned out to be 2 fold. In the assay with C6 glioma cell line [3], the “apoptotic effects in IBP knockdown cell line” value is “completely abolished”.

`CCC(C)N(C)C(=O)c1cc2ccccc2c(-c2ccccc2Cl)n1` (centres unmarked) [PK 11195, 1-(2-chlorophenyl)-N-methyl-N-(1-methyl-propyl)-3-isoquinolinecarboxamide]: in assay [4], the “effect on consequences of kainic acid injections” value is given as “prevented the effects of kainic acid injections”.
